Measurements published in patent US9226916B2, “Pyrrolidine derivatives” (HOFFMANN-LA ROCHE INC., priority 2009, dated 2016).

What follows are compounds tested against T1, recombinant human NK3 receptor (Homo sapiens, UniProt P29371) (assay: [3H]SR142801 competition binding assay). Settings: not given.
T1 construct: expressed in transfected cells; host or cells: HEK293 cells, transient expression; membranes
T1 sequence (P29371 1-465): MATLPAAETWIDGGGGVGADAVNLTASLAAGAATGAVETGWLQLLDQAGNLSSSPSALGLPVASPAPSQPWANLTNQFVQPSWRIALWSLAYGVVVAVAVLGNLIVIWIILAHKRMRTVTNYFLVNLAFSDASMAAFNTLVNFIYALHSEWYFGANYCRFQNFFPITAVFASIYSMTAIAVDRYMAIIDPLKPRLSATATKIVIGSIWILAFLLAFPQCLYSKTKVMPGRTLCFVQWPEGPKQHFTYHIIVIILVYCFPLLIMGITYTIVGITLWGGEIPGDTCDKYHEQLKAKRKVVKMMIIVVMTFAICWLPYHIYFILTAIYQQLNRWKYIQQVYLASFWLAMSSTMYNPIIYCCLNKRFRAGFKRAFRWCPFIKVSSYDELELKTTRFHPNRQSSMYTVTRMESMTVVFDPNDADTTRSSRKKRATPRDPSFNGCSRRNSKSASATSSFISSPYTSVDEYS

Compared with `CN(C(=O)Oc1ccc(F)cc1)[C@@H]1CN(C(=O)C2CCN(c3ccncn3)CC2)C[C@H]1c1ccc(Cl)cc1` [Example 191, [(3S,4R)-4-(4-Chloro-phenyl)-1-(1-pyrimidin-4-yl-piperidine-4-carbonyl)-pyrrolidin-3-yl]-methyl-carbamic acid 4-fluoro-phenyl ester], `Cc1ccc(N2CCC(C(=O)N3C[C@@H](N(C)C(=O)Oc4ccc(F)cc4)[C@H](c4ccc(Cl)cc4)C3)CC2)nc1` [Example 194, [(3S,4R)-4-(4-Chloro-phenyl)-1-(5′-methyl-3,4,5,6-tetrahydro-2H-[1,2′]bipyridinyl-4-carbonyl)-pyrrolidin-3-yl]-methyl-carbamic acid 4-fluoro-phenyl ester] is 2.9-fold higher in Ki: 1.2 nM for the first, 3.5 nM for the second. The first binds more tightly here.

Going from `CN(C(=O)Oc1ccc(F)cc1)[C@@H]1CN(C(=O)C2CCN(c3ncc(C#N)cn3)CC2)C[C@H]1c1ccc(Cl)cc1` [Example 192, {(3S,4R)-4-(4-Chloro-phenyl)-1-[1-(5-cyano-pyrimidin-2-yl)-piperidine-4-carbonyl]-pyrrolidin-3-yl}-methyl-carbamic acid 4-fluoro-phenyl ester] to `CN(C(=O)Oc1ccc(F)cc1)[C@@H]1CN(C(=O)C2CCN(c3cnc(C#N)cn3)CC2)C[C@H]1c1ccc(Cl)cc1` [Example 193, {(3S,4R)-4-(4-Chloro-phenyl)-1-[1-(5-cyano-pyrazin-2-yl)-piperidine-4-carbonyl]-pyrrolidin-3-yl}-methyl-carbamic acid 4-fluoro-phenyl ester], the Ki falls from 3.6 nM to 1.1 nM (3.3-fold).

Going from `CN(C(=O)Oc1ccc(F)cc1)[C@@H]1CN(C(=O)C2CCN(c3ccc(F)cn3)CC2)C[C@H]1c1ccc(Cl)cc1` [Example 195, [(3S,4R)-4-(4-Chloro-phenyl)-1-(5′-fluoro-3,4,5,6-tetrahydro-2H-[1,2′]bipyridinyl-4-carbonyl)-pyrrolidin-3-yl]-methyl-carbamic acid 4-fluoro-phenyl ester] to `CN(C(=O)Oc1ccc(F)cc1)[C@@H]1CN(C(=O)C2CCN(c3ccc(Cl)cn3)CC2)C[C@H]1c1ccc(Cl)cc1` [Example 199, [(3S,4R)-4-(4-Chloro-phenyl)-1-(5′-chloro-3,4,5,6-tetrahydro-2H-[1,2′]bipyridinyl-4-carbonyl)-pyrrolidin-3-yl]-methyl-carbamic acid 4-fluoro-phenyl ester], the Ki falls from 1.4 nM to 0.9 nM (1.6-fold).

`CN(C(=O)Oc1ccc(F)cc1)[C@@H]1CN(C(=O)C2CCN(c3ccc(C(N)=O)cn3)CC2)C[C@H]1c1ccc(Cl)cc1` [Example 196, [(3S,4R)-1-(5′-Carbamoyl-3,4,5,6-tetrahydro-2H-[1,2′]bipyridinyl-4-carbonyl)-4-(4-chloro-phenyl)-pyrrolidin-3-yl]-methyl-carbamic acid 4-fluoro-phenyl ester] and `COc1ccc(N2CCC(C(=O)N3C[C@@H](N(C)C(=O)Oc4ccc(F)cc4)[C@H](c4ccc(Cl)cc4)C3)CC2)nn1` [Example 197, {(3S,4R)-4-(4-Chloro-phenyl)-1-[1-(6-methoxy-pyridazin-3-yl)-piperidine-4-carbonyl]-pyrrolidin-3-yl}-methyl-carbamic acid 4-fluoro-phenyl ester] are within 1.5-fold of each other in Ki: 2.2 nM for the first, 2.6 nM for the second.

Compared with `CN(C(=O)Oc1ccc(F)cc1)[C@@H]1CN(C(=O)C2CCN(c3ccc(C#N)nc3)CC2)C[C@H]1c1ccc(Cl)cc1` [Example 198, [(3S,4R)-4-(4-Chloro-phenyl)-1-(6′-cyano-3,4,5,6-tetrahydro-2H-[1,3]bipyridinyl-4-carbonyl)-pyrrolidin-3-yl]-methyl-carbamic acid 4-fluoro-phenyl ester], `Cc1ccc(OC(=O)N(C)[C@@H]2CN(C(=O)C3CCN(c4ccc(C#N)cn4)CC3)C[C@H]2c2ccc(Cl)cc2)cc1` [Example 202, [(3S,4R)-4-(4-Chloro-phenyl)-1-(5′-cyano-3,4,5,6-tetrahydro-2H-[1,2′]bipyridinyl-4-carbonyl)-pyrrolidin-3-yl]-methyl-carbamic acid p-tolyl ester] is 8.6-fold higher in Ki: 0.5 nM for the first, 4.3 nM for the second.

First: CN(C(=O)Oc1ccccc1)[C@@H]1CN(C(=O)C2CCN(c3ccc(C#N)cn3)CC2)C[C@H]1c1ccc(Cl)cc1 [Example 200, [(3S,4R)-4-(4-Chloro-phenyl)-1-(5′-cyano-3,4,5,6-tetrahydro-2H-[1,2′]bipyridinyl-4-carbonyl)-pyrrolidin-3-yl]-methyl-carbamic acid phenyl ester]
Second: CN(C(=O)Oc1ccccc1F)[C@@H]1CN(C(=O)C2CCN(c3ccc(C#N)cn3)CC2)C[C@H]1c1ccc(Cl)cc1 [Example 212, [(3S,4R)-4-(4-Chloro-phenyl)-1-(5′-cyano-3,4,5,6-tetrahydro-2H-[1,2′]bipyridinyl-4-carbonyl)-pyrrolidin-3-yl]-methyl-carbamic acid 2-fluoro-phenyl ester]
The Ki of the first is 5.1-fold higher: 7.2 nM for the first, 1.4 nM for the second.

Compared with `COc1ccc(OC(=O)N(C)[C@@H]2CN(C(=O)C3CCN(c4ccc(C#N)cn4)CC3)C[C@H]2c2ccc(Cl)cc2)cc1` [Example 201, [(3S,4R)-4-(4-Chloro-phenyl)-1-(5′-cyano-3,4,5,6-tetrahydro-2H-[1,2′]bipyridinyl-4-carbonyl)-pyrrolidin-3-yl]-methyl-carbamic acid 4-methoxy-phenyl ester], `CN(C(=O)Oc1ccc(Cl)cc1)[C@@H]1CN(C(=O)C2CCN(c3ccc(C#N)cn3)CC2)C[C@H]1c1ccc(Cl)cc1` [Example 203, [(3S,4R)-4-(4-Chloro-phenyl)-1-(5′-cyano-3,4,5,6-tetrahydro-2H-[1,2′]bipyridinyl-4-carbonyl)-pyrrolidin-3-yl]-methyl-carbamic acid 4-chloro-phenyl ester] is 11-fold lower in Ki: 3.3 nM for the first, 0.3 nM for the second. The second binds more tightly here.

`CN(C(=O)OCC(C)(C)C)[C@@H]1CN(C(=O)C2CCN(c3ccc(C#N)cn3)CC2)C[C@H]1c1ccc(Cl)cc1` [Example 205, [(3S,4R)-4-(4-Chloro-phenyl)-1-(5′-cyano-3,4,5,6-tetrahydro-2H-[1,2′]bipyridinyl-4-carbonyl)-pyrrolidin-3-yl]-methyl-carbamic acid 2,2-dimethyl-propyl ester] and `CN(C(=O)Oc1ccccc1Cl)[C@@H]1CN(C(=O)C2CCN(c3ccc(C#N)cn3)CC2)C[C@H]1c1ccc(Cl)cc1` [Example 213, [(3S,4R)-4-(4-Chloro-phenyl)-1-(5′-cyano-3,4,5,6-tetrahydro-2H-[1,2′]bipyridinyl-4-carbonyl)-pyrrolidin-3-yl]-methyl-carbamic acid 2-chloro-phenyl ester] are within 1.5-fold of each other in Ki: 5.7 nM for the first, 7.2 nM for the second.

`CN(C(=O)Oc1ccc(C(F)(F)F)cc1)[C@@H]1CN(C(=O)C2CCN(c3ccc(C#N)cn3)CC2)C[C@H]1c1ccc(Cl)cc1` [Example 207, [(3S,4R)-4-(4-Chloro-phenyl)-1-(5′-cyano-3,4,5,6-tetrahydro-2H-[1,2′]bipyridinyl-4-carbonyl)-pyrrolidin-3-yl]-methyl-carbamic acid 4-trifluoromethyl-phenyl ester] and `CN(C(=O)Oc1ccc(F)c(F)c1)[C@@H]1CN(C(=O)C2CCN(c3ccc(C#N)cn3)CC2)C[C@H]1c1ccc(Cl)cc1` [Example 209, [(3S,4R)-4-(4-Chloro-phenyl)-1-(5′-cyano-3,4,5,6-tetrahydro-2H-[1,2′]bipyridinyl-4-carbonyl)-pyrrolidin-3-yl]-methyl-carbamic acid 3,4-difluoro-phenyl ester] are within 1.5-fold of each other in Ki: 0.6 nM for the first, 0.8 nM for the second.

Compared with `CN(C(=O)Oc1ccc(F)cc1F)[C@@H]1CN(C(=O)C2CCN(c3ccc(C#N)cn3)CC2)C[C@H]1c1ccc(Cl)cc1` [Example 208, [(3S,4R)-4-(4-Chloro-phenyl)-1-(5′-cyano-3,4,5,6-tetrahydro-2H-[1,2′]bipyridinyl-4-carbonyl)-pyrrolidin-3-yl]-methyl-carbamic acid 2,4-difluoro-phenyl ester], `CN(C(=O)Oc1cccc(F)c1F)[C@@H]1CN(C(=O)C2CCN(c3ccc(C#N)cn3)CC2)C[C@H]1c1ccc(Cl)cc1` [Example 211, [(3S,4R)-4-(4-Chloro-phenyl)-1-(5′-cyano-3,4,5,6-tetrahydro-2H-[1,2′]bipyridinyl-4-carbonyl)-pyrrolidin-3-yl]-methyl-carbamic acid 2,3-difluoro-phenyl ester] is 6-fold higher in Ki: 0.4 nM for the first, 2.4 nM for the second.

Same assay, conditions: hNK-3 receptor affinity; membranes from HEK293 cells transiently expressing recombinant human NK3 receptor; [3H]SR142801; Cheng-Prussoff; read-out: Data Ki

First: CN(C(=O)OC1CCCC1)[C@@H]1CN(C(=O)C2CCN(c3ccc(C#N)cn3)CC2)C[C@H]1c1ccc(Cl)cc1 [Example 204, [(3S,4R)-4-(4-Chloro-phenyl)-1-(5′-cyano-3,4,5,6-tetrahydro-2H-[1,2′]bipyridinyl-4-carbonyl)-pyrrolidin-3-yl]-methyl-carbamic acid cyclopentyl ester]
Second: COCCOC(=O)N(C)[C@@H]1CN(C(=O)C2CCN(c3ccc(C#N)cn3)CC2)C[C@H]1c1ccc(Cl)cc1 [Example 206, [(3S,4R)-4-(4-Chloro-phenyl)-1-(5′-cyano-3,4,5,6-tetrahydro-2H-[1,2′]bipyridinyl-4-carbonyl)-pyrrolidin-3-yl]-methyl-carbamic acid 2-methoxy-ethyl ester]
The Ki of the first is 2.2-fold lower: 41.2 nM for the first, 90.6 nM for the second. The first binds more tightly here.

For `CN(C(=O)OCCCF)[C@@H]1CN(C(=O)C2CCN(c3ccc(C#N)cn3)CC2)C[C@H]1c1ccc(Cl)cc1` [Example 214, [(3S,4R)-4-(4-Chloro-phenyl)-1-(5′-cyano-3,4,5,6-tetrahydro-2H-[1,2′]bipyridinyl-4-carbonyl)-pyrrolidin-3-yl]-methyl-carbamic acid 3-fluoro-propyl ester], the Ki was 94.2 nM.

Same assay, conditions: read-out: Data Ki

`CN(C(=O)Oc1cc(F)cc(F)c1)[C@@H]1CN(C(=O)C2CCN(c3ccc(C#N)nc3)CC2)C[C@H]1c1ccc(Cl)cc1` [Example 210, [(3S,4R)-4-(4-Chloro-phenyl)-1-(6′-cyano-3,4,5,6-tetrahydro-2H-[1,3]bipyridinyl-4-carbonyl)-pyrrolidin-3-yl]-methyl-carbamic acid 3,5-difluoro-phenyl ester] showed a Ki of 4.6 nM.
